The structures appear in SMILES notation. pIC50: −log10 of the molar value.

The target of the experiment is T1, PLK1 (Homo sapiens, UniProt P53350).
T1 construct: Full-length, active GST-PLK1 is purified from Sf9 insect cells; made in house; host or cells: Sf9 insect cells
T1 sequence (P53350 whole entry): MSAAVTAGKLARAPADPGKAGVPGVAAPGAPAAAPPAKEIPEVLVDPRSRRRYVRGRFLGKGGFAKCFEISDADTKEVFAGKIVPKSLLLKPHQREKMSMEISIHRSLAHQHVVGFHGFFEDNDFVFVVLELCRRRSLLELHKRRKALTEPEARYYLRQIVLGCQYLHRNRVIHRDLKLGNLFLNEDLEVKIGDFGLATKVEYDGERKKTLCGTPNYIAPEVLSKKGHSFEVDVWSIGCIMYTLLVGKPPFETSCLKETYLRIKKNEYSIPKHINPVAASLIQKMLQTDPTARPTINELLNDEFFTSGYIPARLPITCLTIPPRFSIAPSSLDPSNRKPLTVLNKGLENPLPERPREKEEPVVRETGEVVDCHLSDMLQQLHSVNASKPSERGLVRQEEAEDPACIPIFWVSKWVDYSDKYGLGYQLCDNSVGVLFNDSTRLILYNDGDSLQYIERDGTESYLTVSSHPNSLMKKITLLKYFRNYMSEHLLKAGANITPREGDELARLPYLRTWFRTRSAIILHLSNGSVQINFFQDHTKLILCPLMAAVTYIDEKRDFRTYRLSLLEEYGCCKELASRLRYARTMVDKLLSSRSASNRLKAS
Put plainly: Biochemical Characterization Assay: HTRF kinase assay, GST-PLK1 phosphorylation of GST-p53. Particulars: GST-PLK1, GST-p53 substrate, ATP. In a few lines: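 HTRF read-out of p53 phosphorylation: after EDTA stop, anti-phospho-p53 antibody bound 30 min at 37 °C in HEPES pH 7 buffer, with Eu-anti-rabbit/APC-anti-GST detection. Kinase step used full-length Sf9-expressed GST-PLK1 (3 ug/mL) and E. coli GST-p53 substrate, 35 min at 37 °C.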
(In general: In TR-FRET formats the signal depends on donor and acceptor labels being close together.)
What is called pIC50 is −log10 of the IC50, conventionally taken in molar units. Low readings indicate a high IC50, high ones a low IC50. As for `COc1cc(C(=O)NCCCN2CCCC2=O)ccc1Nc1ncc2c(n1)N(C1CCCC1)CC(F)(F)C(=O)N2C` [Example I-113, 4-(9-cyclopentyl-7,7-difluoro-5-methyl-6-oxo-6,7,8,9-tetrahydro-5H-pyrimido[4,5-b][1,4]diazepin-2-ylamino)-3-methoxy-N-[3-(2-oxo-pyrrolidin-1-yl)-propyl]-benzamide], the pIC50 is 7.30 to 9.00.

The compound `COc1cc(C(=O)NCCN2CCCCC2)ccc1Nc1ncc2c(n1)N(C1CCCC1)CC(F)(F)C(=O)N2C` [Example I-114, 4-(9-cyclopentyl-7,7-difluoro-5-methyl-6-oxo-6,7,8,9-tetrahydro-5H-pyrimido[4,5-b][1,4]diazepin-2-ylamino)-3-methoxy-N-(2-piperidin-1-yl-ethyl)-benzamide] had a pIC50 of 7.30 to 9.00.

For the compound `COc1cc(C(=O)NN2CCCCC2)ccc1Nc1ncc2c(n1)N(C1CCCC1)CC(F)(F)C(=O)N2C` [Example I-115, 4-(9-cyclopentyl-7,7-difluoro-5-methyl-6-oxo-6,7,8,9-tetrahydro-5H-pyrimido[4,5-b][1,4]diazepin-2-ylamino)-3-methoxy-N-piperidin-1-yl-benzamide], the negative logarithm of the IC50 (pIC50) is 7.30 to 9.00.

`COc1cc(C(=O)NCCc2ccccn2)ccc1Nc1ncc2c(n1)N(C1CCCC1)CC(F)(F)C(=O)N2C` [Example I-116, 4-(9-cyclopentyl-7,7-difluoro-5-methyl-6-oxo-6,7,8,9-tetrahydro-5H-pyrimido[4,5-b][1,4]diazepin-2-ylamino)-3-methoxy-N-(2-pyridin-2-yl-ethyl)-benzamide] had a negative logarithm of the IC50 (pIC50) of 7.30 to 9.00.

`COc1cc(C(=O)NCCN2CCOCC2)ccc1Nc1ncc2c(n1)N(C1CCCC1)CC(F)(F)C(=O)N2C` [Example I-117, 4-(9-cyclopentyl-7,7-difluoro-5-methyl-6-oxo-6,7,8,9-tetrahydro-5H-pyrimido[4,5-b][1,4]diazepin-2-ylamino)-3-methoxy-N-(2-morpholin-4-yl-ethyl)-benzamide] gave a negative logarithm of the IC50 (pIC50) of 7.30 to 9.00.

In the case of `COc1cc(C(=O)NN2CCN(C)CC2)ccc1Nc1ncc2c(n1)N(C1CCCC1)CC(F)(F)C(=O)N2C` [Example I-118, 4-(9-cyclopentyl-7,7-difluoro-5-methyl-6-oxo-6,7,8,9-tetrahydro-5H-pyrimido[4,5-b][1,4]diazepin-2-ylamino)-3-methoxy-N-(4-methyl-piperazin-1-yl) benzamide], the pIC50 is 7.30 to 9.00.

For `COc1cc(C(=O)NCCNc2ccccc2)ccc1Nc1ncc2c(n1)N(C1CCCC1)CC(F)(F)C(=O)N2C` [Example I-119, 4-(9-cyclopentyl-7,7-difluoro-5-methyl-6-oxo-6,7,8,9-tetrahydro-5H-pyrimido[4,5-b][1,4]diazepin-2-ylamino)-3-methoxy-N-(2-phenylamino-ethyl)-benzamide], the pIC50 is 6.30 to 7.29.

As for `COc1cc(C(=O)NCC(O)CN2CCN(C(=O)OC(C)(C)C)CC2)ccc1Nc1ncc2c(n1)N(C1CCCC1)CC(F)(F)C(=O)N2C` (stereo not drawn) [Example I-120, 4-{3-[4-(9-cyclopentyl-7,7-difluoro-5-methyl-6-oxo-6,7,8,9-tetrahydro-5H-pyrimido[4,5-b][1,4]diazepin-2-ylamino)-3-methoxy-benzoylamino]-2-hydroxy-propyl}-piperazine-1-carboxylic acid tert-butyl ester], the pIC50 was 6.30 to 7.29.

Regarding `COc1cc(C(=O)NCC(O)CN2CCNCC2)ccc1Nc1ncc2c(n1)N(C1CCCC1)CC(F)(F)C(=O)N2C` (stereo not drawn) [Example I-121, 4-(9-cyclopentyl-7,7-difluoro-5-methyl-6-oxo-6,7,8,9-tetrahydro-5H-pyrimido[4,5-b][1,4]diazepin-2-ylamino)-N-(2-hydroxy-3-piperazin-1-yl-propyl)-3-methoxy-benzamide], the negative logarithm of the IC50 (pIC50) is 7.30 to 9.00.

The compound `COc1cc(C(=O)NC2CCN(Cc3ccccc3)CC2)ccc1Nc1ncc2c(n1)N(C1CCCC1)CC(F)(F)C(=O)N2C` [Example I-122, N-(1-benzyl-piperidin-4-yl)-4-(9-cyclopentyl-7,7-difluoro-5-methyl-6-oxo-6,7,8,9-tetrahydro-5H-pyrimido[4,5-b][1,4]diazepin-2-ylamino)-3-methoxy-benzamide] gave a negative-log IC50 (pIC50) of 7.30 to 9.00.

Turning to `CCN(CC)CCCNC(=O)c1ccc(Nc2ncc3c(n2)N(C2CCCC2)CC(F)(F)C(=O)N3C)c(OC)c1` [Example I-123, 4-(9-cyclopentyl-7,7-difluoro-5-methyl-6-oxo-6,7,8,9-tetrahydro-5H-pyrimido[4,5-b][1,4]diazepin-2-ylamino)-N-(3-diethylamino-propyl)-3-methoxy-benzamide], the negative-log IC50 (pIC50) is 7.30 to 9.00.

In turn, `COc1cc(C(=O)NC2CCOCC2)ccc1Nc1ncc2c(n1)N(C1CCCC1)CC(F)(F)C(=O)N2C` [Example I-124] had a negative-log IC50 (pIC50) of 7.30 to 9.00.

With `COc1cc(C(=O)N(C)C)ccc1Nc1ncc2c(n1)N(C1CCCC1)CC(F)(F)C(=O)N2C` [Example I-125, 4-(9-cyclopentyl-7,7-difluoro-5-methyl-6-oxo-6,7,8,9-tetrahydro-5H-pyrimido[4,5-b][1,4]diazepin-2-ylamino)-3-methoxy-N,N-dimethyl-benzamide], the pIC50 was 7.30 to 9.00.

`COc1cc(C(=O)N2CCCCC2)ccc1Nc1ncc2c(n1)N(C1CCCC1)CC(F)(F)C(=O)N2C` [Example I-126, 9-cyclopentyl-7,7-difluoro-2-[2-methoxy-4-(piperidine-1-carbonyl)-phenylamino]-5-methyl-5,7,8,9-tetrahydro-pyrimido[4,5-b][1,4]diazepin-6-one]: the negative logarithm of the IC50 (pIC50) was 6.30 to 7.29.

As to `COc1cc(C(=O)N2CCOCC2)ccc1Nc1ncc2c(n1)N(C1CCCC1)CC(F)(F)C(=O)N2C` [Example I-127, 9-cyclopentyl-7,7-difluoro-2-[2-methoxy-4-(morpholine-4-carbonyl)-phenylamino]-5-methyl-5,7,8,9-tetrahydro-pyrimido[4,5-b][1,4]diazepin-6-one], the negative logarithm of the IC50 (pIC50) is 7.30 to 9.00.

With `COc1cc(C(=O)N2CCN(C)CC2)ccc1Nc1ncc2c(n1)N(C1CCCC1)CC(F)(F)C(=O)N2C` [Example I-128, 9-cyclopentyl-7,7-difluoro-2-[2-methoxy-4-(4-methyl-piperazine-1-carbonyl)-phenylamino]-5-methyl-5,7,8,9-tetrahydro-pyrimido[4,5-b][1,4]diazepin-6-one], the negative-log IC50 (pIC50) was 7.30 to 9.00.

For the compound `COc1cc(C(=O)Nc2ccncc2)ccc1Nc1ncc2c(n1)N(C1CCCC1)CC(F)(F)C(=O)N2C` [Example I-129, 4-(9-cyclopentyl-7,7-difluoro-5-methyl-6-oxo-6,7,8,9-tetrahydro-5H-pyrimido[4,5-b][1,4]diazepin-2-ylamino)-3-methoxy-N-pyridin-4-yl-benzamide], the pIC50 was 7.30 to 9.00.

For the compound `COc1cc(C(=O)Nc2cccnc2)ccc1Nc1ncc2c(n1)N(C1CCCC1)CC(F)(F)C(=O)N2C` [Example I-130, 4-(9-cyclopentyl-7,7-difluoro-5-methyl-6-oxo-6,7,8,9-tetrahydro-5H-pyrimido[4,5-b][1,4]diazepin-2-ylamino)-3-methoxy-N-pyridin-3-yl-benzamide], the negative-log IC50 (pIC50) was 7.30 to 9.00.

In turn, `NC(=O)c1ccc(Nc2ncc3c(n2)N(C2CCCC2)CC(F)(F)C(=O)N3)cc1` [Example I-132, 4-(9-cyclopentyl-7,7-difluoro-6-oxo-6,7,8,9-tetrahydro-5H-pyrimido[4,5-b][1,4]diazepin-2-ylamino)-benzamide] gave a pIC50 below 5.30.

`CNC(=O)c1ccc(Nc2ncc3c(n2)N(C2CCCC2)CC(F)(F)C(=O)N3)cc1` [Example I-133, 4-(9-cyclopentyl-7,7-difluoro-6-oxo-6,7,8,9-tetrahydro-5H-pyrimido[4,5-b][1,4]diazepin-2-ylamino)-N-methyl-benzamide]: the negative-log IC50 (pIC50) was 5.30 to 6.30.

For `CN1CCC(NC(=O)c2ccc(Nc3ncc4c(n3)N(C3CCCC3)CC(F)(F)C(=O)N4)cc2)CC1` [Example I-134, 4-(9-cyclopentyl-7,7-difluoro-6-oxo-6,7,8,9-tetrahydro-5H-pyrimido[4,5-b][1,4]diazepin-2-ylamino)-N-(1-methyl-piperidin-4-yl)-benzamide], the pIC50 was 6.30 to 7.29.

Take `CN(C)CCCNC(=O)c1ccc(Nc2ncc3c(n2)N(C2CCCC2)CC(F)(F)C(=O)N3)cc1` [Example I-135, 4-(9-cyclopentyl-7,7-difluoro-6-oxo-6,7,8,9-tetrahydro-5H-pyrimido[4,5-b][1,4]diazepin-2-yl-amino)-N-(3-dimethyl-amino-propyl)-benzamide]: the negative-log IC50 (pIC50) is 5.30 to 6.30.

`O=C(NC1CCOCC1)c1ccc(Nc2ncc3c(n2)N(C2CCCC2)CC(F)(F)C(=O)N3)cc1` [Example I-136, 4-(9-cyclopentyl-7,7-difluoro-6-oxo-6,7,8,9-tetrahydro-5H-pyrimido[4,5-b][1,4]diazepin-2-ylamino)-N-(tetrahydro-pyran-4-yl)-benzamide] showed a negative-log IC50 (pIC50) of 5.30 to 6.30.

The compound `COc1cc(C(=O)NC2CCN(C)CC2)ccc1Nc1ncc2c(n1)N(C1CCCC1)CC(F)(F)C(=O)N2` [Example I-137, 4-(9-cyclopentyl-7,7-difluoro-6-oxo-6,7,8,9-tetrahydro-5H-pyrimido[4,5-b][1,4]diazepin-2-ylamino)-3-methoxy-N-(1-methyl-piperidin-4-yl)-benzamide] gave a pIC50 of 6.30 to 7.29.

`CCN1C(=O)C(F)(F)CN(C2CCCC2)c2nc(Nc3ccc(C(N)=O)cc3)ncc21` [Example I-139, 4-(9-cyclopentyl-5-ethyl-7,7-difluoro-6-oxo-6,7,8,9-tetrahydro-5H-pyrimido[4,5-b][1,4]diazepin-2-ylamino)-benzamide]: the pIC50 was 5.30 to 6.30.

The compound `CCN1C(=O)C(F)(F)CN(C2CCCC2)c2nc(Nc3ccc(C(=O)NC)cc3)ncc21` [Example I-140, 4-(9-cyclopentyl-5-ethyl-7,7-difluoro-6-oxo-6,7,8,9-tetrahydro-5H-pyrimido[4,5-b][1,4]diazepin-2-ylamino)-N-methyl-benzamide] had a pIC50 of 5.30 to 6.30.

As for `CCN1C(=O)C(F)(F)CN(C2CCCC2)c2nc(Nc3ccc(C(=O)NC4CCN(C)CC4)cc3)ncc21` [Example I-141, 4-(9-cyclopentyl-5-ethyl-7,7-difluoro-6-oxo-6,7,8,9-tetrahydro-5H-pyrimido[4,5-b][1,4]diazepin-2-ylamino)-N-(1-methyl-piperidin-4-yl)-benzamide], the pIC50 is 6.30 to 7.29.
